{"source": "patent US4238495A", "about": "“1-(4-Cyano-phenoxy)-2-hydroxy-3-[2-(5-1H-tetrazolyl )-chromon-5-yloxy]-propane and salts thereof” (Miles Laboratories, Inc., priority 1976, dated 1980)", "key": {"in vivo": {"assay": "in vivo", "conditions": "rat", "text": "(§1) In the following table, ID50 is the dose which reduced the diameter of the wheal by 50% when injected intravenously together with the antigen. LD50 is the intravenous dose that caused death in 50% of the test animals. Therapeutic index is the ratio, LD50/ID50. The reference compounds utilized were: disodium chromoglycate (DSCG); 1-(phenoxy)-2-hydroxy-3-[2-(5-1H-tetrazolyl)-chromon-5-yloxy]-propane; 1-(4-chloro-phenoxy)-2-hydroxy-3-[2-(5-1H-tetrazolyl)-chromon-5-yloxy]-propane; 1-(4-hydroxy-phenoxy)-2-hydroxy-3-[2-5-1H-tetrazolyl)-chromon-5-yloxy]-propane; 1-(4-propyl-phenoxy)-2-hydroxy-3-[2-5-1H-tetrazolyl)-chromon-5-yloxy]-propane; and sodium 1-(4-cyano-phenoxy)-2-hydroxy-3-(2-carboxy-chromon-5-yloxy)-propane."}, "[1]": {"assay": "therapeutic index, LD50/ID50 (i.v. lethality over PCA)", "conditions": "rat, in vivo, iv", "procedure": "(§2) Compounds described in above examples 3 and 4 were evaluated for anti-allergic activity in the rat by the passive cutaneous anaphylaxis test (hereafter PCA), utilizing egg albumin as the antigen.\nas §1"}, "[2]": {"system": "passive cutaneous anaphylaxis (skin wheals, egg albumin antigen)", "assay": "passive cutaneous anaphylaxis (PCA) test, egg albumin as the antigen, i.v.", "type": "in vivo", "conditions": "dose that reduced wheal diameter by 50%, injected i.v. together with antigen, rat PCA; for ED50: iv, read-out: ID50 (i.v.)", "procedure": "as §2\nThe intensity of such PCA reactions is assessed by measuring the diameters of wheals which develop in the skin of the test animals. Details of the PCA test can be found in the following references: I. Mota, Life Sciences, 1: 465 (1963); and B. Ogilvie, Immunology, 12: 113 (1967).\nas §1"}, "[3]": {"system": "passive cutaneous anaphylaxis (skin wheals, egg albumin antigen)", "assay": "therapeutic index, LD50/ID50 (i.v. lethality over PCA)", "procedure": "as §2, §1"}, "[4]": {"conditions": "iv, LD50 (i.v.), i.v. dose that caused death in 50% of test animals"}, "[5]": {"conditions": "THERAPEUTIC INDEX, ratio LD50/ID50"}}}
{"smiles": "N#Cc1ccc(OCC(O)COc2cccc3oc(C(=O)O)cc(=O)c23)cc1.[Na]", "note": "(stereo not drawn)", "values": [{"measurement": "LD50", "setting": "in vivo; iv, LD50 (i.v.)", "result": 2380, "unit": "µmol/kg"}, {"measurement": "selectivity ratio", "setting": "[1]", "result": 3170}]}
{"smiles": "CCCc1ccc(OCC(O)COc2cccc3oc(-c4nnn[nH]4)cc(=O)c23)cc1", "note": "(stereo not drawn) [Augstein C3 H7]", "values": [{"measurement": "ED50", "setting": "[2]", "result": "> 25", "unit": "µmol/kg"}, {"measurement": "LD50", "setting": "in vivo; [4]", "result": "> 493", "unit": "µmol/kg"}, {"measurement": "selectivity ratio", "setting": "[1]; [5]", "result": "> 19.7"}]}
{"smiles": "O=c1cc(-c2nnn[nH]2)oc2cccc(OCC(O)COc3ccc(Cl)cc3)c12", "note": "(stereo not drawn) [Augstein Cl, 1-(4-chloro-phenoxy)-2-hydroxy-3-[2-(5-1H-tetrazolyl)-chromon-5-yloxy]-propane]", "values": [{"measurement": "ED50", "setting": "[2]", "result": 1.8, "unit": "µmol/kg"}, {"measurement": "LD50", "setting": "in vivo; in vivo", "result": "> 1.8", "unit": "µmol/kg"}, {"measurement": "selectivity ratio", "setting": "[1]", "result": "> 1"}]}
{"smiles": "O=c1cc(-c2nnn[nH]2)oc2cccc(OCC(O)COc3ccccc3)c12", "note": "(stereo not drawn) [Augstein H, 1-(phenoxy)-2-hydroxy-3-[2-(5-1H-tetrazolyl)-chromon-5-yloxy]-propane]", "values": [{"measurement": "ED50", "setting": "[2]", "result": 2.25, "unit": "µmol/kg"}, {"measurement": "LD50", "setting": "in vivo; [4]", "result": "> 1050", "unit": "µmol/kg"}, {"measurement": "selectivity ratio", "setting": "[1]; [5]", "result": "> 467"}]}
{"smiles": "O=c1cc(-c2nnn[nH]2)oc2cccc(OCC(O)COc3ccc(O)cc3)c12", "note": "(stereo not drawn) [Augstein OH]", "values": [{"measurement": "ED50", "setting": "[2]", "result": 0.675, "unit": "µmol/kg"}, {"measurement": "LD50", "setting": "in vivo; [4]", "result": "1260 to 4950", "unit": "µmol/kg"}, {"measurement": "selectivity ratio", "setting": "[1]; [5]", "result": "1870 to 7480"}]}
{"smiles": "O=C(O)c1cc(=O)c2c(OCC(O)COc3cccc4oc(C(=O)O)cc(=O)c34)cccc2o1", "note": "[DSCG, disodium chromoglycate]", "values": [{"measurement": "ED50", "setting": "[2]", "result": 1.7, "unit": "µmol/kg"}, {"measurement": "LD50", "setting": "in vivo; [4]", "result": 1950, "unit": "µmol/kg"}, {"measurement": "selectivity ratio", "setting": "[1]; [5]", "result": 1150}]}
{"smiles": "N#Cc1ccc(OCC(O)COc2cccc3oc(-c4nnn[nH]4)cc(=O)c23)cc1", "note": "(stereo not drawn) [Ex. 3, 1-(4-CYANO-PHENOXY)-2-HYDROXY-3-[2-(5-1H-TETRAZOLYL)CHROMON-5-YLOXY]-PROPANE]", "values": [{"measurement": "ED50", "setting": "[2]", "result": 0.075, "unit": "µmol/kg"}, {"measurement": "LD50", "setting": "in vivo; [4]", "result": "> 1180", "unit": "µmol/kg"}, {"measurement": "selectivity ratio", "setting": "[1]; [5]", "result": "> 15800"}, {"measurement": "therapeutic index, times greater than the nearest conger disclosed in Warren", "setting": "[3]; rat, in vivo", "result": "about 5 times"}, {"measurement": "therapeutic index, times greater than DSCG", "setting": "[3]; versus DSCG", "result": "about 15 times"}]}
{"smiles": "N#Cc1ccc(OCC(O)COc2cccc3oc(-c4nnn[nH]4)cc(=O)c23)cc1", "note": "(stereo not drawn) [compound 4, SODIUM 1-(4-CYANOPHENOXY)-2-HYDROXY-3-[2-(5-1H-TETRAZOLYL)CHROMON-5-YLOXY]-PROPANE]", "values": [{"measurement": "ID50 (i.v.)", "setting": "[2]", "result": 0.075, "unit": "µmol/kg"}, {"measurement": "therapeutic index compared with prior art compounds", "setting": "[3]; versus any of the prior art compounds", "result": "still more superior than any of the prior art compounds"}]}
